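Where inhibition never reached the appropriate level, the endpoint shown equals the highest concentration tested. Otherwise, values were interpolated linearly from a five-concentration, 48-hour dose response in 96-well plates. Abbreviation: GI50, concentration required for 50% inhibition of growth. The concentration for full growth arrest is given as TGI.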
Assays:
Assay in all cases: NCI-60 cell line screen, 48 h
[1] = tested on: EKVX NSCLC
[2] = tested on: CAKI-1 renal
[3] = tested on: A549 NSCLC
[4] = tested on: OVCAR-8 ovarian
[5] = tested on: SF-539 CNS
[6] = tested on: NCI-H522 lung
[7] = tested on: HOP-92 NSCLC
[8] = tested on: A498 renal
[9] = tested on: HT29 colon
[10] = tested on: MALME-3M melanoma
[11] = tested on: NCI-H460 lung
[12] = tested on: UACC-62 melanoma
[13] = tested on: MOLT-4 leukemia
[14] = tested on: OVCAR-4 ovarian
[15] = tested on: KM12 colon
[16] = tested on: SF-295 CNS
[17] = tested on: NCI/ADR-RES ovarian
[18] = tested on: MDA-MB-231 breast
[19] = tested on: ACHN renal
[20] = tested on: SF-268 CNS
[21] = tested on: SK-MEL-5 melanoma
[22] = tested on: T-47D breast
[23] = tested on: MDA-MB-435
[24] = tested on: SR leukemia
[25] = tested on: COLO 205 colon
[26] = tested on: SNB-19 CNS
[27] = tested on: RPMI-8226 leukemia
[28] = tested on: K-562 leukemia
[29] = tested on: OVCAR-5 ovarian
[30] = tested on: 786-0 renal
[31] = tested on: NCI-H23 lung
[32] = tested on: HOP-62 NSCLC
[33] = tested on: LOX IMVI melanoma
[34] = tested on: DU-145 prostate
[35] = tested on: RXF 393 renal
[36] = tested on: SNB-75 CNS
[37] = tested on: SW-620 colon
[38] = tested on: SK-MEL-2 melanoma
[39] = tested on: U251 CNS
[40] = tested on: HCT-116 colon
[41] = tested on: HCC-2998 colon
[42] = tested on: PC-3 prostate
[43] = tested on: CCRF-CEM leukemia
[44] = tested on: NCI-H226 lung
[45] = tested on: BT-549 breast
[46] = tested on: MCF7 breast
[47] = tested on: SN12C renal
[48] = tested on: HS 578T breast
[49] = tested on: IGROV1 ovarian
[50] = tested on: M14 melanoma
[51] = tested on: UO-31 renal
[52] = tested on: SK-OV-3 ovarian
[53] = tested on: HL-60(TB) leukemia
[54] = tested on: SK-MEL-28 melanoma
[55] = tested on: HCT-15 colon
[56] = tested on: TK-10 renal

## Oc1ccc(-c2nnc(SCc3ccc(O)c4ncccc34)n2-c2ccccc2)cc1
[1]
  GI50: 596 nM
  TGI: > 100000 nM
[2]
  GI50: 448 nM
  TGI: > 100000 nM
[3]
  GI50: 614 nM
  TGI: > 100000 nM
[4]
  GI50: 233 nM
  TGI: > 100000 nM
[5]
  GI50: 528 nM
  TGI: > 44300 nM
[6]
  GI50: 330 nM
  TGI: 2850 nM
[7]
  GI50: 28.9 nM
  TGI: 845 nM
[8]
  GI50: 570 nM
  TGI: 5840 nM
[9]
  GI50: 3850 nM
  TGI: > 100000 nM
[10]
  GI50: 902 nM
  TGI: > 29100 nM
[11]
  GI50: 152 nM
  TGI: 6280 nM
[12]
  GI50: 462 nM
  TGI: 3980 nM
[13]
  GI50: 394 nM
  TGI: > 100000 nM
[14]
  GI50: 566 nM
  TGI: > 100000 nM
[15]
  GI50: 372 nM
  TGI: > 100000 nM
[16]
  GI50: 387 nM
  TGI: > 100000 nM
[17]
  GI50: 207 nM
[18]
  GI50: 458 nM
  TGI: > 100000 nM
[19]
  GI50: 365 nM
  TGI: > 100000 nM
[20]
  GI50: 465 nM
  TGI: > 100000 nM
[21]
  GI50: 371 nM
  TGI: 1840 nM
[22]
  GI50: 600 nM
  TGI: > 100000 nM
[23]
  GI50: 380 nM
  TGI: > 100000 nM
[24]
  GI50: 325 nM
  TGI: > 100000 nM
[25]
  GI50: 3020 nM
  TGI: > 100000 nM
[26]
  GI50: 385 nM
  TGI: > 100000 nM
[27]
  GI50: 391 nM
  TGI: > 100000 nM
[28]
  GI50: 290 nM
  TGI: > 100000 nM
[29]
  GI50: 1320 nM
  TGI: > 100000 nM
[30]
  GI50: 770 nM
  TGI: 11100 nM
[31]
  GI50: 482 nM
  TGI: > 100000 nM
[32]
  GI50: 521 nM
  TGI: > 100000 nM
[33]
  GI50: 377 nM
  TGI: 6930 nM
[34]
  GI50: 438 nM
  TGI: > 100000 nM
[35]
  GI50: 881 nM
  TGI: > 100000 nM
[36]
  GI50: 1500 nM
  TGI: > 81000 nM
[37]
  GI50: 397 nM
  TGI: > 100000 nM
[38]
  GI50: 828 nM
  TGI: > 36900 nM
[39]
  GI50: 194 nM
  TGI: > 100000 nM
[40]
  GI50: 158 nM
  TGI: > 100000 nM
[41]
  GI50: 620 nM
  TGI: > 63400 nM
[42]
  GI50: 433 nM
  TGI: > 100000 nM
[43]
  GI50: 327 nM
  TGI: > 100000 nM
[44]
  GI50: 718 nM
  TGI: > 85800 nM
[45]
  GI50: 606 nM
  TGI: > 25800 nM
[46]
  GI50: 140 nM
  TGI: > 100000 nM
[47]
  GI50: 348 nM
  TGI: > 100000 nM
[48]
  GI50: 533 nM
  TGI: > 100000 nM
[49]
  GI50: 471 nM
  TGI: > 88300 nM
[50]
  GI50: 284 nM
  TGI: 1570 nM
[51]
  GI50: 261 nM
  TGI: 4260 nM
[52]
  GI50: 496 nM
  TGI: > 25900 nM
[53]
  GI50: 292 nM
  TGI: 2730 nM
[54]
  GI50: 621 nM
  TGI: > 100000 nM
[55]
  GI50: 164 nM
  TGI: > 100000 nM
[56]
  GI50: 502 nM
  TGI: > 100000 nM
